Experimental data as given in US11718892B2, “Biological ore processing for the isolation of heavy metals” (CyPlus GmbH, priority 2015, dated 2023).

Tests used:
Test in all cases: Growth on agar plates with different concentrations of AgNO3 or HAuCl4 (resistance assay)
Type in all cases: cell-based
Parameters in all cases: key: x = growth; (x) = weak growth
[1] = test system: Bacillus sphaericus
Source text: (§1) The growth of several microorganisms (e.g. Escherichia coli, Xanthomonas campestris, Cupriavidus metallidurans and Bacillus sphaericus) was monitored in the presence of the lids with coated pins. Escherichia coli and Xanthomonas campestris served as negative controls with regard to metal binding; Cupriavidus metallidurans as positive control. Additionally, Bacillus sphaericus was used as a positive control for silver binding. For Bacillus sphaericus the binding to gold particles and gold coated surfaces was observed earlier by the inventors. Cupriavidus metallidurans is a gram-negative, rod-shaped bacterium which has gold binding capacity as described in the literature (Reith et al., 2006). The species name metallidurans indicates its resistance to heavy metals and its ability to survive in the presence of gold and silver was investigated previously (Reith F, Rogers S L, McPhail D C and Webb D. (2006) “Biomineralization of gold: biofilms on bacterioform gold.” Science 313(5784): 233-236; Reith F, Etschmann B, Grosse C, Moors H, Benotmane M A, Monsieurs P, Grass G, Doonan C, Vogt S, Lai B, Martinez-Criado G, George G N, Nies D H, Mergeay M, Pring A, Southam G and Brugger J. (2009) “Mechanisms of gold biomineralization in the bacterium Cupriavidus metallidurans.” Proc Natl Acad Sci 106(42):17757-17762; Ledrich ML1, Stemmler S, Laval-Gilly P, Foucaud L, and Falla J (2005) “Precipitation of silver-thiosulfate complex and immobilization of silver by Cupriavidus metallidurans CH34.” Biometals 18(6): 643-650).
(§2) To investigate the tolerated concentration of silver and gold, the microorganisms were propagated in liquid medium and streaked on agar plates with different concentrations of AgNO3 or HAuCl4, respectively.

[2] = test system: Cupriavidus metallidurans
Source text: as §1, §2

[3] = test system: Escherichia coli
Source text: as §1, §2

[4] = test system: Xanthomonas campestris
Source text: as §1, §2

[Au+3].[Cl-].[Cl-].[Cl-].[Cl-].[H+] [HAuCl4]
Microbial growth dependence on HAuCl4 concentration ([1]; 2 μM HAuCl4, agar plate): x | Microbial growth dependence on HAuCl4 concentration ([1]; 20 μM HAuCl4, agar plate): x | Microbial growth dependence on HAuCl4 concentration ([1]; 100 μM HAuCl4, agar plate): x | Microbial growth dependence on HAuCl4 concentration ([1]; 200 μM HAuCl4, agar plate): x | Microbial growth dependence on HAuCl4 concentration ([2]; 2 μM HAuCl4, agar plate): x | Microbial growth dependence on HAuCl4 concentration ([2]; 20 μM HAuCl4, agar plate): x | Microbial growth dependence on HAuCl4 concentration ([2]; 100 μM HAuCl4, agar plate): x | Microbial growth dependence on HAuCl4 concentration ([2]; 200 μM HAuCl4, agar plate): x | Microbial growth dependence on HAuCl4 concentration ([2]; 300 μM HAuCl4, agar plate): x | Microbial growth dependence on HAuCl4 concentration ([2]; 400 μM HAuCl4, agar plate): x | Microbial growth dependence on HAuCl4 concentration ([2]; 500 μM HAuCl4, agar plate): x | Microbial growth dependence on HAuCl4 concentration ([3]; 2 μM HAuCl4, agar plate): x | Microbial growth dependence on HAuCl4 concentration ([3]; 20 μM HAuCl4, agar plate): x | Microbial growth dependence on HAuCl4 concentration ([3]; 100 μM HAuCl4, agar plate): x | Microbial growth dependence on HAuCl4 concentration ([3]; 200 μM HAuCl4, agar plate): x | Microbial growth dependence on HAuCl4 concentration ([3]; 300 μM HAuCl4, agar plate): x | Microbial growth dependence on HAuCl4 concentration ([4]; 2 μM HAuCl4, agar plate): x | Microbial growth dependence on HAuCl4 concentration ([4]; 20 μM HAuCl4, agar plate): x | Microbial growth dependence on HAuCl4 concentration ([4]; 100 μM HAuCl4, agar plate): x | Microbial growth dependence on HAuCl4 concentration ([4]; 200 μM HAuCl4, agar plate): x | Microbial growth dependence on HAuCl4 concentration ([4]; 300 μM HAuCl4, agar plate): x

O=[N+]([O-])[O-].[Ag+] [AgNO3]
Microbial growth dependence on AgNO3 concentration ([1]; 2 μM AgNO3, agar plate): x | Microbial growth dependence on AgNO3 concentration ([1]; 10 μM AgNO3, agar plate): x | Microbial growth dependence on AgNO3 concentration ([1]; 20 μM AgNO3, agar plate): x | Microbial growth dependence on AgNO3 concentration ([1]; 50 μM AgNO3, agar plate): x | Microbial growth dependence on AgNO3 concentration ([1]; 100 μM AgNO3, agar plate): x | Microbial growth dependence on AgNO3 concentration ([1]; 150 μM AgNO3, agar plate): x | Microbial growth dependence on AgNO3 concentration ([2]; 2 μM AgNO3, agar plate): x | Microbial growth dependence on AgNO3 concentration ([2]; 10 μM AgNO3, agar plate): x | Microbial growth dependence on AgNO3 concentration ([2]; 20 μM AgNO3, agar plate): x | Microbial growth dependence on AgNO3 concentration ([2]; 50 μM AgNO3, agar plate): x | Microbial growth dependence on AgNO3 concentration ([2]; 100 μM AgNO3, agar plate): x | Microbial growth dependence on AgNO3 concentration ([2]; 150 μM AgNO3, agar plate): x | Microbial growth dependence on AgNO3 concentration ([2]; 200 μM AgNO3, agar plate): (x) | Microbial growth dependence on AgNO3 concentration ([3]; 2 μM AgNO3, agar plate): x | Microbial growth dependence on AgNO3 concentration ([3]; 10 μM AgNO3, agar plate): x | Microbial growth dependence on AgNO3 concentration ([3]; 20 μM AgNO3, agar plate): x | Microbial growth dependence on AgNO3 concentration ([3]; 50 μM AgNO3, agar plate): x | Microbial growth dependence on AgNO3 concentration ([3]; 100 μM AgNO3, agar plate): x | Microbial growth dependence on AgNO3 concentration ([4]; 2 μM AgNO3, agar plate): x | Microbial growth dependence on AgNO3 concentration ([4]; 10 μM AgNO3, agar plate): x | Microbial growth dependence on AgNO3 concentration ([4]; 20 μM AgNO3, agar plate): x | Microbial growth dependence on AgNO3 concentration ([4]; 50 μM AgNO3, agar plate): x | Microbial growth dependence on AgNO3 concentration ([4]; 100 μM AgNO3, agar plate): x
